Laboratory results from US7659053B2, “Methods of alteration of surface affinities using non-chemical force-creating fields” (President and Fellows of Harvard College, priority 2003, dated 2010).

Tested on: NIH 3T3 fibroblast cells
Assay: Culture of NIH 3T3 fibroblasts on micropatterned SAMs on gold and palladium
Format: cell-based
Details: NIH 3T3 cells
Method: To test the ability of SAMs on palladium to support the adhesion and growth of cells in micropatterns, certain features on the substrates were defined using microcontact printing, using techniques similar to those described above. A poly(dimethylsiloxane) (PDMS) stamp that carried microfeatures was inked with 2 mM octadecanethiol (C18) in ethanol, dried under a stream of nitrogen, then brought it into contact with the palladium films for 2 to 10 seconds. Next, the palladium film was immersed in ethanolic solutions containing 2 mM of thiols A, B, or C for up to 50 hours.
NIH 3T3 fibroblast cells were then cultured on these micropatterned substrates. […] In contrast, OEG-terminated SAMs on the same substrate prevented the adhesion of cells during the same times.

Row | Structure (SMILES) | adhesion of cells on SAM region
1 | OCCOCCOCCOCCOCCOCCOCCOCCCS [Compound 2, HS(CH2)3(OCH2CH2)7OH] | prevented the attachment of cells
2 | OCCOCCOCCOCCCCCCCCCCCS [Compound C11EG3, HS—(CH2)11—(O—CH2—CH2)3—OH] | prevented the attachment of cells
3 | CCCCCCCCCCCCCCCCCCS [Compound C18, HS—(CH2)17—CH3] | supported the adhesion of cells
4 | OCCOCCOCCOCCOCCOCCOCCCCCCCCCCCS [thiol B, HS(CH2)11(OCH2CH2)6OH] | prevented the attachment of cells

Tested on: BCE cells
Assay: Cell motility screening assay: migration of patterned BCE cells out of patterns after voltage pulse
Format: cell-based, Bovine
Details: drug added before voltage pulse (−1.2 V, 30 s), fumagillin 100 mM, cycloheximide 1 mg/mL, nocodozole 1 mg/mL
Method: Time-lapse images were acquired on a Leica inverted microscope equipped with a commercially available on-stage incubation chamber that maintained the temperature at 37° C. and the CO2 concentration at 10% at all times. To prevent the evaporation of water, the culture dish was covered with a thin layer of mineral oil (Sigma-Aldrich, St. Louis, Mo.). Phase-contrast images were acquired by a Hamamatsu video camera using METAMORPH® software (Universal Imaging Inc., Downingtown, Pa.). Fluorescent images were acquired through a charge-coupled device from Hamamatsu (ORCA-ER). Quantification of cell shapes for the analysis of the fractional coverage of the surface was performed with an image analysis routine in Metamorph. Briefly, the cells were outlined and the total areas that the cells occupied were calculated. The calculated area was then divided by the total area of the field of view in the micrograph to obtain the normalized fractional coverage by cells. The LIVE/DEAD® assay kit was obtained from Molecular Probes (Eugene, Oreg.).
BCE cells were patterned on a gold-coated substrate coated with C18 and C11EG3 thiols in discrete patterned regions, similar to those shown in FIG. 1 by techniques similar to those described above in Example 1. Additionally, serum-containing media was used in some instances. […]

Row | Structure (SMILES) | effect on cell migration out of the patterns
5 | CO[C@@H]1[C@H](OC(=O)/C=C/C=C/C=C/C=C/C(=O)O)CC[C@]2(CO2)[C@H]1[C@@]1(C)O[C@@H]1CC=C(C)C [Fumagillin, fumagillin] | reduce the rates of cell migration
6 | C[C@@H]1C[C@@H]([C@H](O)CC2CC(=O)NC(=O)C2)C(=O)[C@@H](C)C1 [cycloheximide] | reduce the rates of cell migration
